Here are results for 31 compounds from patent EP0269841A1, “1-Hydroxyalkyl xanthines, processes for their preparation and medicaments containing them” (SOCIETE DES PRODUITS NESTLE S.A., priority 1986, dated 1988).

Each structure is given as a SMILES string.

For the first experiment, the system named is oreillette gauche du cobaye isolée et stimulée électriquement. The experiment in a line: In vitro inotropic (cardiotonic) activity: contraction force of isolated, electrically stimulated guinea pig left atrium. Type of experiment: cell-based. The conditions noted are these: read-out: Cardiotonique (concentration minimale efficace en ug/ml produisant une réponse significative). From the text: Les composés (I) selon l'invention ont été trouvés peu toxiques et n'ont pas ou peu d'effet sur le système nerveux central. Par contre, ils se sont montrés actifs dans les test in vitro d'activité inotropique (cardiotonique). Le Tableau (IV) ci-dessous donne les résultats de ces essais.
Theophylline 15 Amrinone ^2) 100 Milrinone ^2) 0,5 IBMX^3) 0,5 • 1) Mesure de la force de contraction de l'oreillette gauche du cobaye isolée et stimulée électriquement, selon Erjavek, F. and Adamic, S., Arch. Int. Pharmacodyn. 155: 251, 1965. Une réponse est considérée comme significative lorsque la force de contraction de base est augmentée de plus de 40 %. • 2) Médicament cardiotonique selon l'état de la technique • 3) 1-méthyl-3-isobutylxanthine
As to `Cc1[nH]c(=O)c(C#N)cc1-c1ccncc1` [Milrinone, reference compound], the minimal effective concentration is 0.5 µg/mL.

Staying with this experiment, now noted: significant response = basal contraction force increased by more than 40 %; isolated left atrium of guinea pig, electrically stimulated.
For `CCCCn1c(=O)n(CC(C)O)c(=O)c2[nH]cnc21` (stereo not shown) [compound 6], the “Cardiotonique (concentration minimale efficace en ug/ml produisant une réponse significative)” value was 4,2 ug/ml.

`CCCn1c(=O)n(CCCCCO)c(=O)c2[nH]c(C)nc21` [compound 27]: the “Cardiotonique (concentration minimale efficace en ug/ml produisant une réponse significative)” value is recorded as 0,3 ug/ml.

Staying with this experiment, now noted: significant response = basal contraction force increased by more than 40 %; isolated left atrium of guinea pig, electrically stimulated; listed as 1.
As for `CCCn1c(=O)n(CCCCCO)c(=O)c2[nH]c(C)nc21` [Xanthine No. 27, 1-(5-Hydroxypentyl)-3-propyl-8-methylxanthine], the “Cardiotonique (concentration minimale efficace en ug/ml produisant une réponse significative)” value amounted to 1 µg/mL.

Still in this experiment, the particulars now being: significant response = basal contraction force increased by more than 40 %; isolated left atrium of guinea pig, electrically stimulated; listed as 2.
`CCCCn1c(=O)n(CCCCO)c(=O)c2[nH]cnc21` [Xanthine No. 21, 1-(4-Hydroxybutyl)-3-butylxanthine]: the “Cardiotonique (concentration minimale efficace en ug/ml produisant une réponse significative)” value is on record as 2,5 ug/ml.

Still in this experiment, the particulars now being: significant response = basal contraction force increased by more than 40 %; isolated left atrium of guinea pig, electrically stimulated; listed as 3.
For `CC(C)Cn1c(=O)n(CCC(C)O)c(=O)c2[nH]cnc21` (stereo not shown) [Xanthine No. 17, 1-(3-Hydroxybutyl)-3-isobutylxanthine], the “Cardiotonique (concentration minimale efficace en ug/ml produisant une réponse significative)” value worked out at 2 µg/mL.

The experiment is the same for the next values; noted with them: significant response = basal contraction force increased by more than 40 %; isolated left atrium of guinea pig, electrically stimulated; read-out: Cardiotonique (concentration minimale efficace en ug/ml produisant une réponse significative).
Consider `Nc1cc(-c2ccncc2)c[nH]c1=O` [Amrinone, reference compound], for which the minimal effective concentration is 100 µg/mL.

Consider `CC(C)Cn1c(=O)n(C)c(=O)c2[nH]cnc21` [IBMX, 1-méthyl-3-isobutylxanthine, reference compound], for which the minimal effective concentration was determined as 0.5 µg/mL.

Take `Cn1c(=O)c2[nH]cnc2n(C)c1=O` [Theophylline, reference compound]: the minimal effective concentration came out at 15 µg/mL.

`CCCCn1c(=O)n(CC(C)O)c(=O)c2[nH]cnc21` (stereo not shown) [Xanthine No. 6, 1-(2-Hydroxypropyl)-3-butylxanthine]: the minimal effective concentration is 3.3 µg/mL.

On to `CCCn1c(=O)n(CC(C)O)c(=O)c2[nH]c(C)nc21` (stereo not shown) [compound 5], for which the minimal effective concentration turned out to be 0.6 µg/mL.

Take `CCCn1c(=O)n(CCCO)c(=O)c2[nH]cnc21` [compound 7]: the minimal effective concentration was found to be 1.3 µg/mL.

On to `CCCn1c(=O)n(CCCO)c(=O)c2[nH]c(C)nc21` [compound 8], for which the minimal effective concentration stood at 4.2 µg/mL.

Consider `CCCn1c(=O)n(CCCO)c(=O)c2[nH]c(CC)nc21` [compound 9], for which the minimal effective concentration was found to be 2 µg/mL.

Regarding `CCCCn1c(=O)n(CCCO)c(=O)c2[nH]cnc21` [compound 10], the minimal effective concentration was 0.4 µg/mL.

For the compound `CC(C)Cn1c(=O)n(CCCO)c(=O)c2[nH]cnc21` [compound 11], the minimal effective concentration is 0.7 µg/mL.

Regarding `Cc1nc2c([nH]1)c(=O)n(CCCO)c(=O)n2CC(C)C` [compound 12], the minimal effective concentration amounted to 0.5 µg/mL.

As for `CC(O)CCn1c(=O)c2[nH]cnc2n(C)c1=O` (stereo not shown) [compound 13], the minimal effective concentration stood at 50 µg/mL.

As to `CCn1c(=O)n(CCC(C)O)c(=O)c2[nH]cnc21` (stereo not shown) [compound 14], the minimal effective concentration was found to be 0.8 µg/mL.

Turning to `CCn1c(=O)n(CCC(C)O)c(=O)c2[nH]c(C)nc21` (stereo not shown) [compound 15], the minimal effective concentration stood at 0.6 µg/mL.

Turning to `CCCn1c(=O)n(CCC(C)O)c(=O)c2[nH]cnc21` (stereo not shown) [compound 16], the minimal effective concentration turned out to be 0.1 µg/mL.

As to `CC(C)Cn1c(=O)n(CCC(C)O)c(=O)c2[nH]cnc21` (stereo not shown) [compound 17], the minimal effective concentration came out at 1.3 µg/mL.

As for `CCn1c(=O)n(CCCCO)c(=O)c2[nH]cnc21` [compound 18], the minimal effective concentration worked out at 3.3 µg/mL.

`CCCn1c(=O)n(CCCCO)c(=O)c2[nH]cnc21` [compound 19]: the minimal effective concentration was 0.4 µg/mL.

For the compound `CCCn1c(=O)n(CCCCO)c(=O)c2[nH]c(C)nc21` [compound 20], the minimal effective concentration amounted to 0.7 µg/mL.

As for `CCCCn1c(=O)n(CCCCO)c(=O)c2[nH]cnc21` [compound 21], the minimal effective concentration worked out at 2 µg/mL.

Take `Cc1nc2c([nH]1)c(=O)n(CCCCO)c(=O)n2CC(C)C` [compound 22]: the minimal effective concentration was 25 µg/mL.

As for `CC(O)CCCn1c(=O)c2[nH]cnc2n(C)c1=O` (stereo not shown) [compound 23], the minimal effective concentration amounted to 33.3 µg/mL.

On to `CCCn1c(=O)n(CCCC(C)O)c(=O)c2[nH]cnc21` (stereo not shown) [compound 24], for which the minimal effective concentration was 0.7 µg/mL.

`Cn1c(=O)n(CCCCCO)c(=O)c2[nH]cnc21` [compound 25]: the minimal effective concentration amounted to 6.7 µg/mL.

For the compound `CCCn1c(=O)n(CCCCCO)c(=O)c2[nH]cnc21` [compound 26], the minimal effective concentration amounted to 0.2 µg/mL.
